Structures are written as SMILES.

The values that follow come from patent US11352352B2, “Aminopyrimidine compound, preparation method therefor and use thereof” (BEIJING ADAMADLE BIOTECHNOLOGY LIMITED LIABILITY COMPANY, priority 2017, dated 2022).

Holding throughout (assay): Cell proliferation inhibition experiment, CellTiter-Glo (CTG) method
Assay type in all cases: cell-based

The subject of assay [1] is A-431. The following applies: Homo sapiens, A-431, 72 h, A-431 cells, 3 days. Put shortly: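 Cells seeded overnight at 37 °C, 5% CO2, then treated with nine 3-fold dilutions in triplicate, top 30 μM for A-431 and 1.111 μM for NCI-H1975 and PC-9; solvent control. After 3 days, viability read by CellTiter-Glo luminescence; IC50 from non-linear sigmoidal fit of survival rate.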

Assay [2] relates to NCI-H1975. The conditions noted are these: for IC50: Homo sapiens, NCI-H1975, 72 h, NCI-H1975 cells, CTG, 3 days; for A-431/NCI-H1975 Selectivity: ratio of A-431 IC50 to NCI-H1975 IC50. Put shortly:
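NCI-H1975 cells with viability above 90% by trypan blue were seeded at 90 μL per well in black 96-well plates and incubated overnight at 37° C., 5% CO2. Compounds were added at nine concentrations in triplicate, and viability was measured with CellTiter-Glo luminescence on EnVision. IC50 came from non-linear S-curve fitting in GraphPad Prism 5.0.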

Assay [3] deals with PC-9. The conditions noted are these: Homo sapiens, PC-9, 72 h, PC-9 cells, 3 days. Put shortly: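 Cells in log-phase growth (viability above 90% by trypan blue) were seeded at 90 μL per well in black-walled, clear-bottom 96-well plates and incubated overnight at 37° C., 5% CO2. A T0 plate was read the next day. Test compounds were added at nine concentrations in triplicate with a solvent control. Viability was measured by CellTiter-Glo luminescence on EnVision, and IC50 came from non-linear S-curve fitting in GraphPad Prism 5.0.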

For the compound `C=CC(=O)Nc1cc(Nc2cc(-c3ccc4c(cnn4CC)c3)ncn2)c(OC(F)F)cc1N(C)CCN(CC)CC` [compound 96], the IC50 in assay [1] stood at 945 nM; in assay [2], 13.7 nM; in assay [3], 10.8 nM. In addition, the “A-431/NCI-H1975 Selectivity” value in assay [2] came out at 69.

Consider `C=CC(=O)Nc1cc(Nc2cc(-c3ccc4c(cnn4C)c3)ncn2)c(OC(F)F)cc1N1C[C@@H](C)N(C)[C@@H](C)C1` [compound 97], for which the IC50 came to 798 nM in assay [1], 33.1 nM in assay [2] and 22.6 nM in assay [3]. Also, in assay [2], the “A-431/NCI-H1975 Selectivity” value was determined as 24.1.

On to `C=CC(=O)Nc1cc(Nc2cc(-c3ccc4c(cnn4CC)c3)ncn2)c(OC(F)F)cc1N1C[C@@H](C)N(C)[C@@H](C)C1` [compound 98], for which the IC50 was found to be 1060 nM in assay [1], 83.5 nM in assay [2] and 31.7 nM in assay [3]. Besides, in assay [2], the “A-431/NCI-H1975 Selectivity” value was 12.7.

As to `C=CC(=O)Nc1cc(Nc2cc(-c3ccc4c(cnn4C)c3)ncn2)c(OC)cc1N1CCC(N2CCN(C(C)C)CC2)CC1` [compound 101], the figures for the IC50 in assay [1], in assay [2] and in assay [3] were 633 nM, 7.3 nM and 19.5 nM, respectively.

On to `C=CC(=O)Nc1cc(Nc2cc(-c3ccc4c(cnn4C)c3)ncn2)c(OC)cc1N1CCOCC1` [compound 102], for which the IC50 worked out at 986 nM in assay [1], 14.1 nM in assay [2] and 12.5 nM in assay [3]. Further, the “A-431/NCI-H1975 Selectivity” value in assay [2] amounted to 70.0.

Take `C=CC(=O)Nc1cc(Nc2cc(-c3ccc4c(cnn4C)c3)ncn2)c(OC)cc1N1CCN(CC2CC2)CC1` [compound 105]: the IC50 in assay [1] was 778 nM; in assay [2], 14.6 nM; in assay [3] it was 17.9 nM. In addition, in assay [2], the “A-431/NCI-H1975 Selectivity” value turned out to be 53.3.

As for `C=CC(=O)Nc1cc(Nc2cc(-c3ccc4c(cnn4C)c3)ncn2)c(OC)cc1N1CCC2(CC1)COC2` [compound 107], the IC50 was determined as 1290 nM in assay [1], 16.5 nM in assay [2] and 17.8 nM in assay [3]. Moreover, in assay [2], the “A-431/NCI-H1975 Selectivity” value was 78.2.

Consider `C=CC(=O)Nc1cc(Nc2nccc(-c3ccc4c(cnn4C)c3)n2)c(OC)cc1N(C)C1CCN(C)C1` (stereo not shown) [compound 109], for which the IC50 was 1430 nM in assay [1], 32.3 nM in assay [2] and 35 nM in assay [3]. Also, in assay [2], the “A-431/NCI-H1975 Selectivity” value is recorded as 44.4.

Regarding `C=CC(=O)Nc1cc(Nc2cc(-c3ccc4c(cnn4C)c3)ncn2)c(OC)cc1N(C)[C@@H]1CCN(C)C1` [compound 110], the IC50 is 599 nM in assay [1], 8 nM in assay [2] and 6.9 nM in assay [3].

For the compound `C=CC(=O)Nc1cc(Nc2cc(-c3ccc4c(cnn4C)c3)ncn2)c(OC(F)F)cc1N(C)C1CCN(C)C1` (stereo not shown) [compound 111], the IC50 in assay [1] came out at 948 nM; in assay [2], 18 nM; in assay [3], 16.8 nM. Further, in assay [2], the “A-431/NCI-H1975 Selectivity” value turned out to be 52.7.

With `C=CC(=O)Nc1cc(Nc2cc(-c3ccc4c(cnn4CC)c3)ncn2)c(OC)cc1N(C)C1CCN(C)C1` (stereo not shown) [compound 112], the IC50 in assay [1] is 654 nM; in assay [2] it was 9 nM; in assay [3], 9.7 nM. For the same compound, the “A-431/NCI-H1975 Selectivity” value in assay [2] was determined as 72.7.

Consider `C=CC(=O)Nc1cc(Nc2nccc(-c3ccc4c(cnn4C)c3)n2)c(OC)cc1N1CCN(CCN(C)C)CC1` [compound 113], for which the IC50 in assay [1] turned out to be 1360 nM; in assay [2], 56.6 nM; in assay [3], 45.6 nM. For the same compound, the “A-431/NCI-H1975 Selectivity” value in assay [2] was 24.0.

On to `C=CC(=O)Nc1cc(Nc2nccc(-c3ccc4c(cnn4C)c3)n2)c(OC(F)F)cc1N1CCN(CCN(C)C)CC1` [compound 114], for which the IC50 is 1480 nM in assay [1], 31.5 nM in assay [2] and 32.7 nM in assay [3]. Moreover, the “A-431/NCI-H1975 Selectivity” value in assay [2] came out at 46.9.

For the compound `C=CC(=O)Nc1cc(Nc2cc(-c3ccc4c(cnn4C)c3)ncn2)c(OCC)cc1N1CCN(CCN(C)C)CC1` [compound 117], the results for the IC50 in assay [1], in assay [2] and in assay [3] were 679 nM, 11.3 nM and 11.2 nM, respectively. In addition, the “A-431/NCI-H1975 Selectivity” value in assay [2] worked out at 60.1.

`C=CC(=O)Nc1cc(Nc2cc(-c3ccc4c(cnn4CC)c3)ncn2)c(OC)cc1N(C)CCN1CCN(C)CC1` [compound 118]: the IC50 stood at 1060 nM in assay [1], 19.9 nM in assay [2] and 23.6 nM in assay [3]. Also, the “A-431/NCI-H1975 Selectivity” value in assay [2] came to 53.2.

`C=CC(=O)Nc1cc(Nc2cc(-c3ccc4c(cnn4C)c3)ncn2)c(OCC)cc1N(C)CCN1CCN(C)CC1` [compound 119]: the IC50 in assay [1] is 1250 nM; in assay [2] it was 23.1 nM; in assay [3], 17.8 nM. The “A-431/NCI-H1975 Selectivity” value in assay [2] was determined as 54.0.

With `C=CC(=O)Nc1cc(Nc2cc(-c3ccc4c(cnn4C)c3)ncn2)c(OC(F)F)cc1N(C)CCNC(C)(C)C` [compound 120], the IC50 in assay [1] was found to be 598 nM; in assay [2], 8.2 nM; in assay [3] it was 6.7 nM. In assay [2], the “A-431/NCI-H1975 Selectivity” value amounted to 73.0.

In the case of `C=CC(=O)Nc1cc(Nc2cc(-c3ccc4c(cnn4C)c3)ncn2)c(OCC)cc1N(C)CCNC(C)(C)C` [compound 121], the IC50 in assay [1] was determined as 2310 nM; in assay [2], 40.2 nM; in assay [3] it was 31.1 nM. Moreover, the “A-431/NCI-H1975 Selectivity” value in assay [2] came out at 57.6.

Regarding `C=CC(=O)Nc1cc(Nc2cc(-c3ccc4c(cnn4C)c3)ncn2)c(OC(F)F)cc1NCCN(C)C` [compound 122], the IC50 was found to be 580 nM in assay [1], 5.2 nM in assay [2] and 11.6 nM in assay [3]. For the same compound, the “A-431/NCI-H1975 Selectivity” value in assay [2] was 111.5.

For the compound `C=CC(=O)Nc1cc(Nc2cc(-c3ccc4c(cnn4C)c3)ncn2)c(OCC)cc1NCCN(C)C` [compound 123], the figures for the IC50 in assay [1], in assay [2] and in assay [3] were 698 nM, 13.7 nM and 15.5 nM, respectively. For the same compound, in assay [2], the “A-431/NCI-H1975 Selectivity” value worked out at 51.0.

Take `C=CC(=O)Nc1cc(Nc2cc(-c3ccc4ncsc4c3)ncn2)c(OC)cc1N(C)CCN1CCN(C)CC1` [compound 124]: the IC50 amounted to 1470 nM in assay [1], 35.2 nM in assay [2] and 32.3 nM in assay [3]. Besides, the “A-431/NCI-H1975 Selectivity” value in assay [2] came out at 41.7.

Take `C=CC(=O)Nc1cc(Nc2cc(-c3ccc4c(cnn4C)c3)ncn2)c(OC)cc1N(C)CCN1C[C@@H](C)N(C)[C@@H](C)C1` [compound 125]: the IC50 came out at 1580 nM in assay [1], 32.1 nM in assay [2] and 22.1 nM in assay [3]. Moreover, the “A-431/NCI-H1975 Selectivity” value in assay [2] is listed as 49.2.

On to `C=CC(=O)Nc1cc(Nc2cc(-c3ccc4ncsc4c3)ncn2)c(OC)cc1N(C)CCN1C[C@@H](C)N(C)[C@@H](C)C1` [compound 126], for which the figures for the IC50 in assay [1], in assay [2] and in assay [3] were 2010 nM, 85 nM and 64.1 nM, respectively. In addition, in assay [2], the “A-431/NCI-H1975 Selectivity” value turned out to be 23.7.

On to `C=CC(=O)Nc1cc(Nc2cc(-c3ccc4c(cnn4C)c3)ncn2)c(OC)cc1N(C)CCN1CCN(C2CC2)CC1` [compound 127], for which the IC50 amounted to 2300 nM in assay [1], 45.1 nM in assay [2] and 163 nM in assay [3]. Besides, in assay [2], the “A-431/NCI-H1975 Selectivity” value turned out to be 51.0.

As for `C=CC(=O)Nc1cc(Nc2cc(-c3ccc4ncsc4c3)ncn2)c(OC)cc1N(C)CCN1CCN(C2CC2)CC1` [compound 128], the results for the IC50 in assay [1], in assay [2] and in assay [3] were 1370 nM, 103 nM and 70.7 nM, respectively. In addition, in assay [2], the “A-431/NCI-H1975 Selectivity” value is listed as 13.2.

For `C=CC(=O)Nc1cc(Nc2cc(-c3ccc4c(c3)ncn4C)ncn2)c(OC)cc1N(C)CCN1CCN(C(C)=O)CC1` [compound 130], the results for the IC50 in assay [1], in assay [2] and in assay [3] were 2310 nM, 56.6 nM and 43.2 nM, respectively. Moreover, the “A-431/NCI-H1975 Selectivity” value in assay [2] is on record as 40.9.

In the case of `C=CC(=O)Nc1cc(Nc2cc(-c3ccc4c(c3)ncn4C)ncn2)c(OC)cc1OCCN1CCN(C)CC1` [compound 132], the IC50 was determined as 2040 nM in assay [1], 42.3 nM in assay [2] and 118 nM in assay [3]. The “A-431/NCI-H1975 Selectivity” value in assay [2] is recorded as 48.3.

Take `C=CC(=O)Nc1cc(Nc2cc(-c3ccc4c(cnn4C)c3)ncn2)c(OC)cc1N1CCN(C2CCN(C)CC2)CC1` [compound 133]: the IC50 in assay [1] is 598 nM; in assay [2], 9.9 nM; in assay [3] it was 10.7 nM. In addition, in assay [2], the “A-431/NCI-H1975 Selectivity” value was determined as 60.4.

As to `C=CC(=O)Nc1cc(Nc2cc(-c3ccc4c(cnn4C)c3)ncn2)c(OC)cc1N1CCN(C2CCN(C(C)=O)CC2)CC1` [compound 134], the IC50 stood at 1430 nM in assay [1], 33.8 nM in assay [2] and 31.1 nM in assay [3]. Besides, the “A-431/NCI-H1975 Selectivity” value in assay [2] worked out at 42.4.

As for `C=CC(=O)Nc1cc(Nc2cc(-c3ccc4c(cnn4C)c3)ncn2)c(OC)cc1N1CCN(C(=O)CN(C)C)CC1` [compound 135], the values for the half-maximal inhibitory concentration (IC50) in assay [1], in assay [2] and in assay [3] were 756 nM, 15.4 nM and 17.7 nM, respectively.

For `C=CC(=O)Nc1cc(Nc2cc(-c3ccc4c(cnn4C)c3)ncn2)c(OC)cc1N1CCN(CC(=O)N(C)C)CC1` [compound 136], the 50% inhibitory concentration (IC50) in assay [1] is 2300 nM; in assay [2], 56.2 nM; in assay [3], 45.6 nM. Besides, the “A-431/NCI-H1975 Selectivity” value in assay [2] was 41.1.

Turning to `C=CC(=O)Nc1cc(Nc2cc(-c3ccc4c(cnn4C)c3)ncn2)c(OC)cc1N1CCC(N(CC)CC)CC1` [compound 137], the values for the IC50 in assay [1], in assay [2] and in assay [3] were 597 nM, 4.8 nM and 7.6 nM, respectively.
